Earlier results in PubChem BioAssay AID1259410 (Chemical Carcinogenesis Research Information System (CCRIS), 2018).

Test system: rodent tumor promotion studies, tumor incidence
Assay: CCRIS tumor promotion studies

CCC1(c2ccccc2)C(=O)NC(=O)NC1=O
outcome (Carcinogen: 2-(ACETYLAMINO)FLUORINE, Doses [Carcinogen]: DIET, Doses [Promoter]: IN DIET, Route [Carcinogen]: ORAL, Route [Promoter]: ORAL, Species: RAT, Strain/Sex: MALE): liver | outcome (Carcinogen: 3'-METHYL-4-DIMETHYLAMINOAZOBENZENE, Doses [Carcinogen]: DIET, Doses [Promoter]: IN DIET, Route [Carcinogen]: ORAL, Route [Promoter]: ORAL, Species: RAT, Strain/Sex: MALE): liver | outcome (Carcinogen: 4-DIMETHYLAMINOAZOBENZENE, Doses [Carcinogen]: DIET, Doses [Promoter]: IN DIET, Route [Carcinogen]: ORAL, Route [Promoter]: ORAL, Species: RAT, Strain/Sex: MALE): liver | outcome (Carcinogen: DIETHYLNITROSAMINE [55-18-5], Doses [Carcinogen]: 90 MG/KG BW ONCE, Doses [Promoter]: 90 MG/KG BW DAILY FOR UP TO 76 WK STARTING 2 WK AFTER CARCINOGEN TREATMENT (STUDY DURATION: 76 WK), Route [Carcinogen]: IP INJECTION, Route [Promoter]: DIET, Species: MOUSE, Strain/Sex: C3H/HE/MALE): liver: tumor incidence was 100% by 52 wk and 10 tumors/animal | outcome (Carcinogen: DIETHYLNITROSAMINE [55-18-5], Doses [Carcinogen]: 90 MG/KG BW ONCE, Doses [Promoter]: 90 MG/KG BW DAILY FOR UP TO 90 WK STARTING 2 WK AFTER CARCINOGEN TREATMENT (STUDY DURATION: 92 WK), Route [Carcinogen]: IP INJECTION, Route [Promoter]: DIET, Species: MOUSE, Strain/Sex: B6C3F1/MALE): liver: promoter increased liver tumor incidence considerably, 12 tumors/animal a | outcome (Carcinogen: DIETHYLNITROSAMINE [55-18-5], Doses [Carcinogen]: 90 MG/KG BW ONCE, Doses [Promoter]: 90 MG/KG BW DAILY FOR UP TO 90 WK STARTING 2 WK AFTER CARCINOGEN TREATMENT (STUDY DURATION: 92 WK), Route [Carcinogen]: IP INJECTION, Route [Promoter]: DIET, Species: MOUSE, Strain/Sex: C57BL/6J/MALE): liver: tumor; 5 tumors/animal at 76 wk; pb increased tumors somewhat at 40-92 wk | outcome (Carcinogen: DIETHYLNITROSAMINE, 55-18-5, Doses [Carcinogen]: 5 MG/KG IN SALINE ONCE ON DAY 15 OF AGE, Doses [Promoter]: 0, 500 MG/L FOR 24 WK BEGINNING AT 28 DAYS OF AGE (STUDY DURATION: 28 WK), Route [Carcinogen]: INTRAPERITONEAL, Route [Promoter]: ORAL, Species: MOUSE, Strain/Sex: C3H/MALE): liver: adenoma | outcome (Carcinogen: DIETHYLNITROSAMINE, 55-18-5, Doses [Carcinogen]: 10 MG/KG ONCE, Doses [Promoter]: 0, 500 PPM IN DIET FOR 140 D BEGINNING 30 D POST CARCINOGEN DOSE (STUDY DURATION: 450 D), Route [Carcinogen]: INTRAPERITONEAL, Route [Promoter]: ORAL, Species: RAT, Strain/Sex: SPRAGUE-DAWLEY/FEMALE): liver: adenoma or carcinoma | outcome (Carcinogen: DIETHYLNITROSAMINE, 55-18-5, Doses [Carcinogen]: 80 MG/KG BW ONCE, Doses [Promoter]: 0, 0.05% IN DIET FOR 39 WK BEGINNING 1 WK POST CARCINOGEN DOSE (STUDY DURATION: 40 WK), Route [Carcinogen]: INTRAPERITONEAL, Route [Promoter]: ORAL, Species: RAT, Strain/Sex: F344/MALE): liver: tumor | outcome (Carcinogen: DIETHYLNITROSAMINE, 55-18-5, Doses [Carcinogen]: 150 MG/KG ONCE, Doses [Promoter]: 0.05% IN DIET BEGINNING 2 WK POST CARCINOGEN DOSE AND CONTINUING FOR 54 WK (STUDY DURATION: 56 WK), Route [Carcinogen]: INTRAPERITONEAL, Route [Promoter]: ORAL, Species: RAT, Strain/Sex: F344/MALE): liver: hepatocellular carcinoma or neoplastic nodule | outcome (Carcinogen: DIETHYLNITROSAMINE, 55-18-5, Doses [Carcinogen]: 150 MG/KG ONCE, Doses [Promoter]: 0.05% IN DIET BEGINNING 2 WK POST CARCINOGEN DOSE FOR 11 WK FOLLOWED BY CONTROL DIET FOR DURATION OF STUDY (STUDY DURATI, Route [Carcinogen]: INTRAPERITONEAL, Route [Promoter]: ORAL, Species: RAT, Strain/Sex: F344/MALE): liver: hepatocellular carcinoma or neoplastic nodule | outcome (Carcinogen: DIETHYLNITROSAMINE, 55-18-5, Doses [Carcinogen]: 150 MG/KG ONCE, Doses [Promoter]: 0.05% IN DIET BEGINNING 11 WK POST CARCINOGEN DOSE AND CONTINUING FOR DURATION OF STUDY (STUDY DURATION: 56 WK), Route [Carcinogen]: INTRAPERITONEAL, Route [Promoter]: ORAL, Species: RAT, Strain/Sex: F344/MALE): liver: hepatocellular carcinoma or neoplastic nodule | outcome (Carcinogen: DIETHYLNITROSAMINE, Doses [Carcinogen]: SC, Doses [Promoter]: IN DIET, Route [Carcinogen]: SUBCUTANEOUS, Route [Promoter]: ORAL, Species: RAT, Strain/Sex: MALE): liver | outcome (Carcinogen: DIMETHYLNITROSAMINE, 62-75-9, Doses [Carcinogen]: 5 MG/KG IN SALINE ONCE ON DAY 15 OF AGE, Doses [Promoter]: 0, 500 MG/L FOR 24 WK BEGINNING AT 28 DAYS OF AGE (STUDY DURATION: 28 WK), Route [Carcinogen]: INTRAPERITONEAL, Route [Promoter]: ORAL, Species: MOUSE, Strain/Sex: B6C3F1/MALE): liver: adenoma | outcome (Carcinogen: DIMETHYLNITROSAMINE, 62-75-9, Doses [Carcinogen]: 5 MG/KG IN SALINE ONCE ON DAY 15 OF AGE, Doses [Promoter]: 0, 500 MG/L FOR 24 WK BEGINNING AT 28 DAYS OF AGE (STUDY DURATION: 28 WK), Route [Carcinogen]: INTRAPERITONEAL, Route [Promoter]: ORAL, Species: MOUSE, Strain/Sex: C3H/MALE): liver: adenoma
